Measurements published in paper PMC7377239, “Cardiovascular Effects of Polychlorinated Biphenyls and Their Major Metabolites” (Environmental Health Perspectives, 2020).
Where two headings read alike, the source gives them in different places.

Tested on: iCell cardiomyocytes (human iPSC-derived cardiomyocytes)
Experiment: Intracellular Ca2+ flux / beating parameters in iCell cardiomyocytes (FLIPR tetra), 90 min or 24 h
Type: cell-based
Conditions: 0.00 µM = 100.00; for activity at 0.01 µM / activity at 0.1 µM / activity at 1 µM / activity at 10 µM / activity at 100 µM: Homo sapiens, Cardiomyocyte
How it was run: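 PODs were defined as the concentration crossing one SD of the vehicle-control means (0.5% DMSO) on four-parameter logistic fits of Ca2+ trace metrics (peak height, frequency, peak-spacing CV, decay/rise ratio). Traces came from 100 s, 8 Hz FLIPR reads at 37 °C on calcium-dye-loaded iCell cardiomyocytes. Before reading, cells were treated for 90 min or 24 h from 5× chemical plates spanning 0.05–500 µM, in triplicate.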

SMILES: Clc1ccc(Cl)c(-c2c(Cl)ccc(Cl)c2Cl)c1Cl [(+)-PCB 136, 2,2′,3,3′,6,6′-hexachlorobiphenyl]
- cm.amp.avg.24hrs (0.01 µM, 24hrs): 54.01
- cm.amp.cv.24hrs (0.01 µM, 24hrs): 158.80
- cm.amp.avg.24hrs (0.10 µM, 24hrs): 107.99
- cm.amp.cv.24hrs (0.10 µM, 24hrs): 72.89
- cm.bpm.24hrs (0.10 µM, 24hrs): 96.42
- cm.decay.rise.24hrs (0.10 µM, 24hrs): 106.79
- cm.spacing.cv.24hrs (0.10 µM, 24hrs): 105.08
- cm.amp.cv.24hrs (1.00 µM, 24hrs): 92.90
- cm.bpm.24hrs (1.00 µM, 24hrs): 94.51
- cm.decay.rise.24hrs (1.00 µM, 24hrs): 114.76
- cm.spacing.cv.24hrs (1.00 µM, 24hrs): 110.09
- cm.bpm.90min (10.00 µM, 90min): 82.76
- cm.decay.rise.90min (10.00 µM, 90min): 115.77
- cm.amp.avg.24hrs (10.00 µM, 24hrs): 0.00
- cm.amp.cv.24hrs (10.00 µM, 24hrs): 0.00
- cm.bpm.24hrs (10.00 µM, 24hrs): 0.00
- cm.decay.rise.24hrs (10.00 µM, 24hrs): 0.00
- cm.spacing.cv.24hrs (10.00 µM, 24hrs): 0.00
- activity at 0.01 µM (1.5 h, 0.01 µM, 90min, read-out: cm.amp.avg.90min): 106%
- activity at 0.01 µM (1.5 h, 0.01 µM, 90min, read-out: cm.amp.cv.90min): 96.9%
- activity at 0.01 µM (1.5 h, 0.01 µM, 90min, read-out: cm.bpm.90min): 97.8%
- activity at 0.01 µM (1.5 h, 0.01 µM, 90min, read-out: cm.decay.rise.90min): 99%
- activity at 0.01 µM (1.5 h, 0.01 µM, 90min, read-out: cm.spacing.cv.90min): 101%
- activity at 0.1 µM (1.5 h, 0.10 µM, 90min, read-out: cm.amp.avg.90min): 107%
- activity at 0.1 µM (1.5 h, 0.10 µM, 90min, read-out: cm.amp.cv.90min): 112%
- activity at 0.1 µM (1.5 h, 0.10 µM, 90min, read-out: cm.bpm.90min): 96.5%
- activity at 0.1 µM (1.5 h, 0.10 µM, 90min, read-out: cm.decay.rise.90min): 99.7%
- activity at 0.1 µM (1.5 h, 0.10 µM, 90min, read-out: cm.spacing.cv.90min): 115%
- activity at 1 µM (1.5 h, 1.00 µM, 90min, read-out: cm.amp.avg.90min): 107%
- activity at 1 µM (1.5 h, 1.00 µM, 90min, read-out: cm.amp.cv.90min): 120%
- activity at 1 µM (1.5 h, 1.00 µM, 90min, read-out: cm.bpm.90min): 87.8%
- activity at 1 µM (1.5 h, 1.00 µM, 90min, read-out: cm.decay.rise.90min): 107%
- activity at 1 µM (1.5 h, 1.00 µM, 90min, read-out: cm.spacing.cv.90min): 107%
- activity at 10 µM (1.5 h, 10.00 µM, 90min, read-out: cm.amp.avg.90min): 94.4%
- activity at 10 µM (1.5 h, 10.00 µM, 90min, read-out: cm.amp.cv.90min): 114%
- activity at 10 µM (1.5 h, 10.00 µM, 90min, read-out: cm.spacing.cv.90min): 118%
- activity at 100 µM (1.5 h, 100.00 µM, 90min, read-out: cm.amp.avg.90min): 0%
- activity at 100 µM (1.5 h, 100.00 µM, 90min, read-out: cm.amp.cv.90min): 0%
- activity at 100 µM (1.5 h, 100.00 µM, 90min, read-out: cm.bpm.90min): 0%
- activity at 100 µM (1.5 h, 100.00 µM, 90min, read-out: cm.decay.rise.90min): 0%
- activity at 100 µM (1.5 h, 100.00 µM, 90min, read-out: cm.spacing.cv.90min): 0%
- activity at 0.01 µM (24 h, 0.01 µM, 24hrs, read-out: cm.bpm.24hrs): 105%
- activity at 0.01 µM (24 h, 0.01 µM, 24hrs, read-out: cm.decay.rise.24hrs): 93.3%
- activity at 0.01 µM (24 h, 0.01 µM, 24hrs, read-out: cm.spacing.cv.24hrs): 104%
- activity at 1 µM (24 h, 1.00 µM, 24hrs, read-out: cm.amp.avg.24hrs): 83.3%
- activity at 100 µM (24 h, 100.00 µM, 24hrs, read-out: cm.amp.avg.24hrs): 0%
- activity at 100 µM (24 h, 100.00 µM, 24hrs, read-out: cm.amp.cv.24hrs): 0%
- activity at 100 µM (24 h, 100.00 µM, 24hrs, read-out: cm.bpm.24hrs): 0%
- activity at 100 µM (24 h, 100.00 µM, 24hrs, read-out: cm.decay.rise.24hrs): 0%
- activity at 100 µM (24 h, 100.00 µM, 24hrs, read-out: cm.spacing.cv.24hrs): 0%

SMILES: Clc1ccc(Cl)c(-c2c(Cl)ccc(Cl)c2Cl)c1Cl [(-)-PCB 136, 2,2′,3,3′,6,6′-hexachlorobiphenyl]
- cm.amp.avg.90min (0.01 µM, 90min): 93.19
- cm.amp.cv.90min (0.01 µM, 90min): 114.99
- cm.bpm.90min (0.01 µM, 90min): 99.06
- cm.decay.rise.90min (0.01 µM, 90min): 100.18
- cm.spacing.cv.90min (0.01 µM, 90min): 110.22
- cm.amp.avg.24hrs (0.01 µM, 24hrs): 96.89
- cm.amp.cv.24hrs (0.01 µM, 24hrs): 99.89
- cm.bpm.24hrs (0.01 µM, 24hrs): 97.37
- cm.decay.rise.24hrs (0.01 µM, 24hrs): 110.34
- cm.spacing.cv.24hrs (0.01 µM, 24hrs): 99.92
- cm.amp.avg.90min (0.10 µM, 90min): 107.52
- cm.amp.cv.90min (0.10 µM, 90min): 110.59
- cm.bpm.90min (0.10 µM, 90min): 101.57
- cm.decay.rise.90min (0.10 µM, 90min): 100.78
- cm.spacing.cv.90min (0.10 µM, 90min): 107.82
- cm.amp.avg.24hrs (0.10 µM, 24hrs): 74.13
- cm.amp.cv.24hrs (0.10 µM, 24hrs): 32.34
- cm.bpm.24hrs (0.10 µM, 24hrs): 44.87
- cm.decay.rise.24hrs (0.10 µM, 24hrs): 55.66
- cm.spacing.cv.24hrs (0.10 µM, 24hrs): 50.62
- cm.amp.avg.90min (1.00 µM, 90min): 95.68
- cm.amp.cv.90min (1.00 µM, 90min): 133.10
- cm.bpm.90min (1.00 µM, 90min): 102.82
- cm.decay.rise.90min (1.00 µM, 90min): 105.32
- cm.spacing.cv.90min (1.00 µM, 90min): 97.68
- cm.amp.avg.24hrs (1.00 µM, 24hrs): 66.49
- cm.amp.cv.24hrs (1.00 µM, 24hrs): 35.31
- cm.bpm.24hrs (1.00 µM, 24hrs): 50.60
- cm.decay.rise.24hrs (1.00 µM, 24hrs): 50.54
- cm.spacing.cv.24hrs (1.00 µM, 24hrs): 53.09
- cm.amp.avg.90min (10.00 µM, 90min): 76.03
- cm.amp.cv.90min (10.00 µM, 90min): 119.24
- cm.bpm.90min (10.00 µM, 90min): 115.36
- cm.decay.rise.90min (10.00 µM, 90min): 88.64
- cm.spacing.cv.90min (10.00 µM, 90min): 116.95
- cm.amp.avg.24hrs (10.00 µM, 24hrs): 43.21
- cm.amp.cv.24hrs (10.00 µM, 24hrs): 38.97
- cm.bpm.24hrs (10.00 µM, 24hrs): 43.91
- cm.decay.rise.24hrs (10.00 µM, 24hrs): 43.15
- cm.spacing.cv.24hrs (10.00 µM, 24hrs): 54.11
- cm.amp.avg.90min (100.00 µM, 90min): 0.00
- cm.amp.cv.90min (100.00 µM, 90min): 0.00
- cm.bpm.90min (100.00 µM, 90min): 0.00
- cm.decay.rise.90min (100.00 µM, 90min): 0.00
- cm.spacing.cv.90min (100.00 µM, 90min): 0.00
- cm.amp.avg.24hrs (100.00 µM, 24hrs): 0.00
- cm.amp.cv.24hrs (100.00 µM, 24hrs): 0.00
- cm.bpm.24hrs (100.00 µM, 24hrs): 0.00
- cm.decay.rise.24hrs (100.00 µM, 24hrs): 0.00
- cm.spacing.cv.24hrs (100.00 µM, 24hrs): 0.00
